In brackets after ≈: the same amount, converted by molar mass. Entries after “also recorded” stand apart in the source; their conditions may differ.
Tests used:
[1] = aqueous solubility; type: physicochemical; conditions: LLOQ 0.1 μg/mL
[2] = biological target: T1, LXRα (Homo sapiens, UniProt Q13133); test: Gal4-hybrid reporter gene assay LXRα in HEK293T cells; type: cell-based; conditions: 10 μM; printed as both LXR subtypes
T1 construct: pFA-CMV-hLXRα-LBD; expressed in transfected cells; host or cells: HEK293T
T1 sequence (Q13133 209-447 limits assumed): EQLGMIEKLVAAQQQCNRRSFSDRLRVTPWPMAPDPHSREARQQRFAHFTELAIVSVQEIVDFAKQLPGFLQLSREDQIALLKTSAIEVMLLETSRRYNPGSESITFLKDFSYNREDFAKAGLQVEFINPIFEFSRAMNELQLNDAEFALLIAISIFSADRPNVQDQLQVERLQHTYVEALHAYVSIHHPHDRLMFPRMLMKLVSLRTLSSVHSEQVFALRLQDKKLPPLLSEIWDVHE
Source text: (§1) Hybrid reporter gene assays for PPARα/γ/δ, LXRα/β, RXRα/β/γ, RARα/β/γ, VDR and PXR Plasmids: The Gal4-fusion receptor plasmids pFA-CMV-hPPARα-LBD^52, pFA-CMV-hPPARγ-LBD^52, pFA-CMV-hPPARδ-LBD^52, pFA-CMV-hLXRα-LBD^32 and pFA-CMV-hLXRβ-LBD^32 have been reported previously. […] Frame and sequence of all fusion receptors were verified by sequencing. pFR-Luc (Stratagene) was used as reporter plasmid and pRL-SV40 (Promega) for normalization of transfection efficiency and cell growth.
(§2) Assay procedure: HEK293T cells were grown in DMEM high glucose, supplemented with 10% FCS, sodium pyruvate (1 mM), penicillin (100 U/mL) and streptomycin (100 μg/mL) at 37° C. and 5% CO2. The day before transfection, HEK293T cells were seeded in 96-well plates (2.5·10^4 cells/well). Before transfection, medium was changed to Opti-MEM without supplements. Transient transfection was carried out using Lipofectamine LTX reagent (Invitrogen) according to the manufacturer's protocol with pFR-Luc (Stratagene), pRL-SV40 (Promega) and pFA-CMV-hRXRα-LBD. 5 h after transfection, medium was changed to Opti-MEM supplemented with penicillin (100 U/mL), streptomycin (100 μg/mL), now additionally containing 0.1% DMSO and the respective test compound or 0.1% DMSO alone as untreated control. […] Luminescence was measured with an Infinite M200 luminometer (Tecan Deutschland GmbH). […]

[3] = biological target: T2, RXRα (Homo sapiens, UniProt P19793); test: Gal4-hybrid reporter gene assay RXRα in HEK293T cells; type: cell-based; conditions: 10 μM
T2 construct: hRXRα-P19793, residues 225-462; expressed in transfected cells; host or cells: HEK293T
T2 sequence (P19793 225-462): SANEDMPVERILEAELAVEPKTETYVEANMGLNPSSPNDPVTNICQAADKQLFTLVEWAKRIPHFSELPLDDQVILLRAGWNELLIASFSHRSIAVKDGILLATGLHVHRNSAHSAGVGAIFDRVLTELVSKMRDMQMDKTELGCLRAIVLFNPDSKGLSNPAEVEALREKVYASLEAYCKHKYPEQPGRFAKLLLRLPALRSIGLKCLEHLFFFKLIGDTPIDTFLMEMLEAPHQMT
Source text: as §1, §2

[4] = tested on: HepG2 cells; test: WST-1 cytotoxicity assay; type: cell-based; conditions: up to 100 μM
[5] = in vivo pharmacokinetic evaluation in mice; parameters: species or system mouse; conditions: single dose p.o. 10 mg/kg body weight
Procedure: Three additional animals served as vehicle control.
Food and water were available ad libitum.
A part of the blood was centrifuged (6000 rpm, 10 min, +4° C.) to obtain plasma for quantification of EET/DHET ratio and stored at −80° C. until further evaluation. For liver collection, mice were sacrificed by cervical dislocation after the last blood sampling (8 h post dose). Complete liver was immediately snap-frozen and stored at −80° C. until further evaluation. Plasma and liver were equally obtained from three control mice which received oral application of the vehicle (1% HPMC/Tween 80 (99:1)).

[6] = observation of animals in the pilot in vivo study; parameters: species or system mouse; conditions: single oral dose 10 mg/kg body weight
Procedure: Animals and compound application: 9 male C57BL/6JRj mice (23-26 g body weight, purchased from Janvier Labs, France) were used in the present study. The animals were housed in a temperature-controlled room (20-24° C.) and maintained in a 12 h light/12 h dark cycle. Food and water were available ad libitum. The in life phase was performed by the contract research organization Pharmacelsus (Saarbrücken, Germany). All experimental procedures were approved by and conducted in accordance with the regulations of the local Animal Welfare authorities (Landesamt für Gesundheit und Verbraucherschutz, Abteilung Lebensmittel-und Veterinärwesen, Saarbrücken). Six animals received a single oral dose of 10 mg/kg body weight of dual modulator 57 in water containing 1% HPMC/Tween 80 (99:1). Three animals received the vehicle (water containing 1% HPMC/Tween 80 (99:1)).

Compound: CC(C)(C)c1ccc(C(=O)NCc2ccc(NS(C)(=O)=O)cc2Cl)cc1 [compound 57, 4-(tert-Butyl)-N-(2-chloro-4-(methylsulfonamido)benzyl)benzamide]
- aqueous solubility [1]: 1.5 µg/mL (≈ 3.8 µM)
- activity on LXRα [2]: inactive
- activity on RXRα [3]: inactive
- cytotoxicity in WST-1 assay [4]: no cytotoxic activity; also recorded: no cytotoxicity
- Cmax [5]: 1182 ng/mL
- t1/2 [5]: 42 min
- tmax [5]: 30 min
- adverse effects in mice [6]: no adverse effects

From patent US20200172473A1, “DUAL MODULATORS OF FARNESOID X RECEPTOR AND SOLUBLE EPOXIDE HYDROLASE” (JOHANN WOLFGANG GOETHE-UNIVERSITÄT FRANKFURT AM MAIN, priority 2017, published 2020)
